Reference: patent EP0378255B1, “2-Aminopyrimidinone derivatives” (JANSSEN PHARMACEUTICA N.V., priority 1989, dated 1990)
Where two headings read alike, the source gives them in different places.

Columns and labels:
[1] = test system: Tryptamine; assay: Combined Apomorphine, Tryptamine and Norepinephrine (ATN) test in rats: tryptamine part; type: in vivo; settings: Rattus norvegicus
[2] = test system: Norepinephrine; assay: Combined Apomorphine, Tryptamine and Norepinephrine (ATN) test in rats: norepinephrine part; type: in vivo; settings: Rattus norvegicus; read-out: Combined ATN test in rats ED₅₀ values (NOR)
Experimental: (§1) Int. Pharmacodyn. Ther., 227, 238-253, 1977. Further the activity of the subject compounds as serotonin antagonists is evidenced by the experimental data obtained in the "Gastric Lesions induced by compound 48/80 in rats" test, described in U.S.-4,335,127. […] All tests were carried out following the procedures described in the cited references and the experimental data are shown in Table 8.

[3] = test system: compound 48/80; assay: Gastric Lesions induced by compound 48/80 in rats (serotonin antagonism); type: in vivo; settings: Rattus norvegicus, read-out: Compound 48/80 tests ED₅₀ values Gastric lesions
Experimental: as §1

[4] = test system: compound 48/80; assay: Protection of Rats from compound 48/80 induced lethality (antihistaminic activity); type: in vivo; settings: Rattus norvegicus, read-out: Compound 48/80 tests ED₅₀ values Lethality
Experimental: as §1

[5] = test system: Apomorphine; assay: Combined Apomorphine, Tryptamine and Norepinephrine (ATN) test in rats: apomorphine part; type: in vivo; settings: Rattus norvegicus; read-out: Combined ATN test in rats ED₅₀ values (APO)
[6] = test system: Wistar rats; settings: separated group of 8 rats, cited from earlier work
[7] = convulsions, read-out: Combined ATN test in rats ED₅₀ values (TRY) convulsions
[8] = hyperaemia, read-out: Combined ATN test in rats ED₅₀ values (TRY) hyperaemia

Compound | ED50 [1, 7] | ED50 [1, 8] | ED50 [2] | ED50 [3] | ED50 [4] | ED50 [5] | effect on SWS2 ([6]; 0.63 mg/kg, for 8 h, at the expense of W, SWS1 and PS) | effects on sleep-wakefulness patterns ([6]; doses of 0.04 and 0.16 mg/kg)
Cc1nc2n(C)ncn2c(=O)c1CCN1CCC(c2noc3cc(F)ccc23)CC1 [Compound 89] | 0.08 mg/kg | ≤ 0.0025 mg/kg | 0.31 mg/kg | 0.16 mg/kg | 0.02 mg/kg | 0.08 mg/kg | – | –
Cc1nc2n(C)c(C)cn2c(=O)c1CCN1CCN(c2noc3ccccc23)CC1 [Compound 111] | 0.31 mg/kg | 0.005 mg/kg | 0.31 mg/kg | 0.16 mg/kg | – | 0.08 mg/kg | – | –
CC1=NN(C)c2nc(C)c(CCN3CCN(c4noc5ccccc45)CC3)c(=O)n2C1 [Compound 112] | 0.31 mg/kg | 0.005 mg/kg | 0.63 mg/kg | 0.04 mg/kg | 0.16 mg/kg | 0.08 mg/kg | – | –
Cc1nc2n(C)nc(C)n2c(=O)c1CCN1CCN(c2noc3ccccc23)CC1 [Compound 113] | 0.31 mg/kg | 0.005 mg/kg | 1.25 mg/kg | 0.08 mg/kg | – | 0.08 mg/kg | – | –
Cc1nc2n(C)ncn2c(=O)c1CCN1CCN(c2noc3ccccc23)CC1 [Compound 114] | 0.31 mg/kg | ≤ 0.04 mg/kg | 1.25 mg/kg | 0.16 mg/kg | – | 0.08 mg/kg | – | –
Cc1nc2n(c(=O)c1CCN1CCN(c3noc4ccccc34)CC1)CCN2C [Compound 115] | 0.31 mg/kg | 0.005 mg/kg | 1.25 mg/kg | 0.02 mg/kg | 0.04 mg/kg | 0.08 mg/kg | – | –
Cc1nc2n(c(=O)c1CCN1CCN(c3noc4ccccc34)CC1)CCCN2C [Compound 120] | 0.08 mg/kg | 0.02 mg/kg | 1.25 mg/kg | 0.63 mg/kg | 0.01 mg/kg | 0.02 mg/kg | – | –
Cc1nc2n(C)ccn2c(=O)c1CCN1CCN(c2nsc3ccccc23)CC1 [Compound 124] | 0.02 mg/kg | 0.00125 mg/kg | 5 mg/kg | 0.04 mg/kg | 0.31 mg/kg | 0.08 mg/kg | – | –
Cc1nc2sccn2c(=O)c1CCN1CCC(=C(c2ccc(F)cc2)c2ccc(F)cc2)CC1 [ritanserin, 6-[2-[4-[bis(4-fluorophenyl)methylene]-1-piperidinyl]ethyl]-7-methyl-5H-thiazolo[3,2-a]pyrimidin-5-one] | – | – | – | – | – | – | significant increase of SWS2 | no major effects on sleep-wakefulness patterns
